Reference: the NIST ThermoML archive (doi:10.1016/j.jct.2012.11.020)
± gives the expanded uncertainty stated by the source.

Assay: wn = mass fraction of the nth substance listed
Conditions: 298.15 K, 100 kPa, Liquid, Alternating current cell with electrodes

C1CC[NH2+]C1.O=[N+]([O-])[O-] [pyrrolidinium nitrate] + CC1COC(=O)O1
Conditions | electrical conductivity [S/m]
w1 = 0.1266 | 0.874 ± 0.15
w1 = 0.1348 | 0.927 ± 0.15
w1 = 0.1441 | 0.989 ± 0.15
w1 = 0.1543 | 1.06 ± 0.16
w1 = 0.1646 | 1.12 ± 0.16
w1 = 0.1788 | 1.24 ± 0.16
w1 = 0.1948 | 1.32 ± 0.17
w1 = 0.2149 | 1.45 ± 0.18
w1 = 0.2396 | 1.62 ± 0.22
w1 = 0.2529 | 1.7 ± 0.21
w1 = 0.2692 | 1.94 ± 0.23
w1 = 0.2862 | 2.05 ± 0.25
w1 = 0.3073 | 2.2 ± 0.22
w1 = 0.3274 | 2.32 ± 0.23
w1 = 0.3479 | 2.46 ± 0.23
w1 = 0.3768 | 2.63 ± 0.24
w1 = 0.3915 | 2.71 ± 0.24
w1 = 0.4212 | 2.86 ± 0.26
w1 = 0.4476 | 3.05 ± 0.26
w1 = 0.4916 | 3.21 ± 0.27
w1 = 0.5453 | 3.46 ± 0.29
w1 = 0.5834 | 3.62 ± 0.3
w1 = 0.6211 | 3.74 ± 0.3
w1 = 0.6897 | 3.92 ± 0.32
w1 = 0.7407 | 4.12 ± 0.34
w1 = 0.8065 | 4.28 ± 0.35
w1 = 0.8913 | 4.47 ± 0.36
w1 = 1 | 4.22 ± 0.34
